Earlier results as cited in patent US20190161549A1, “COMBINATION THERAPY WITH A MEK INHIBITOR, A PD-1 AXIS INHIBITOR, AND A VEGF INHIBITOR” (Genentech, Inc., priority 2016, published 2019).
Read-outs that look alike come from different tables or passages of the source.

Assays:
human tumor cell lines = conditions: through inhibition of MEK1 and MEK2
[1] = dose range 0.05 mg/kg (approximately 3.5 mg for 70 kg adult) to 80 mg
[2] = with or without high-fat meal, versus cobimetinib alone fasted
cancer patients = conditions: 14 CRC patients
[3] = test system: human tumor xenograft models
[4] = not given; remark: listed apart in the source

Compound | proliferation of a variety of human tumor cell lines (human tumor cell lines) | dose proportionality of pharmacokinetics [1] | effect of proton pump inhibitor rabeprazole on pharmacokinetics [2] | response in colorectal cancer (CRC) patients (cancer patients) | ERK phosphorylation in xenograft tumor models [3] | exposure of fixed dose 800 mg q2w versus 1200 mg q3w (800 mg every two weeks (equivalent to 10 mg/kg q2w)) | dose proportionality of pharmacokinetics (doses ≥1 mg/kg every three weeks (q3w)) | Kaplan-Meier estimated overall 24-week progression-free survival (PFS) rate ([4]; Study PCD4989g, 95% CI: 12%, 53%) | anti-tumor activity ([4]; across doses from 1 to 20 mg/kg)
O=C(c1ccc(F)c(F)c1Nc1ccc(I)cc1F)N1CC(O)([C@@H]2CCCCN2)C1 [cobimetinib, (S)[3,4-Difluoro-2-(2-fluoro-4-iodophenylamino)phenyl][3-hydroxy-3-(piperidin-2-yl]azetidin-1-yl) methanone] | inhibits proliferation | linear pharmacokinetics | minimal effect | all patients experienced progressive disease | inhibits ERK phosphorylation | – | – | – | –
atezolizumab: anti-PD-L1 antibody, CAS Registry Number: 1422185-06-5 | – | – | – | – | – | equivalent exposure | linear | 33% | has been observed
